In the supplement of paper PMC11061612:

Legend:
Assay in all cases: Bliss excess, mean over the matrix (fraction); higher = more synergy
42-MG-BA (Glioblastoma) = test system: 42-MG-BA (Glioblastoma)
Summary of the method: (§1)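 Cell lines grown in DMEM/F12 or RPMI with 10% FBS were plated in 1536-well plates and held 24 hours at 37°C, 5% CO2 before 72 hours of exposure to two-drug dose matrices, with DMSO typically at 0.2%. CellTiter-Glo 2.0 luminescence gave viability, which was converted to inhibition. Vehicle wells were set to 0 and blank wells to 1. Combination Emax is the second-highest inhibition in the matrix, and Bliss excess is the observed combination effect minus the expected EA + EB − EA·EB, where EA and EB are the single-agent effects.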

[1] = test system: B-CPAP (Thyroid Gland Carcinoma)
Summary of the method: as §1

[2] = test system: DoTc2-4510 (Cervical Carcinoma)
Summary of the method: as §1

[3] = test system: EC-GI-10 (Esophageal Squamous Cell Carcinoma)
Summary of the method: as §1

ES4 (Ewing's Sarcoma) = test system: ES4 (Ewing's Sarcoma)
Summary of the method: as §1

[4] = test system: HO-1-N-1 (Oral Cavity Carcinoma)
Summary of the method: as §1

KELLY (Neuroblastoma) = test system: KELLY (Neuroblastoma)
Summary of the method: as §1

[5] = test system: KURAMOCHI (Ovarian Carcinoma)
Summary of the method: as §1

[6] = test system: KYSE-520 (Esophageal Squamous Cell Carcinoma)
Summary of the method: as §1

[7] = test system: LS-180 (Colorectal Carcinoma)
Summary of the method: as §1

[8] = test system: MDA-MB-361 (Breast Carcinoma)
Summary of the method: as §1

[9] = test system: MFE-296 (Endometrial Carcinoma)
Summary of the method: as §1

NB10 (Neuroblastoma) = test system: NB10 (Neuroblastoma)
Summary of the method: as §1

[10] = test system: NCI-H82 (Small Cell Lung Carcinoma)
Summary of the method: as §1

NOS-1 (Osteosarcoma) = test system: NOS-1 (Osteosarcoma)
Summary of the method: as §1

[11] = test system: OVCA420 (Ovarian Carcinoma)
Summary of the method: as §1

[12] = test system: RC-K8 (B-Cell Non-Hodgkin's Lymphoma)
Summary of the method: as §1

[13] = test system: SK-ES-1 (Ewing's Sarcoma)
Summary of the method: as §1

[14] = test system: TE-15 (Esophageal Squamous Cell Carcinoma)
Summary of the method: as §1

[15] = test system: TE-9 (Esophageal Squamous Cell Carcinoma)
Summary of the method: as §1

SMILES	Bliss excess (42-MG-BA (Glioblastoma))	Bliss excess [1]	Bliss excess [2]	Bliss excess [3]	Bliss excess (ES4 (Ewing's Sarcoma))	Bliss excess [4]	Bliss excess (KELLY (Neuroblastoma))	Bliss excess [5]	Bliss excess [6]	Bliss excess [7]	Bliss excess [8]	Bliss excess [9]	Bliss excess (NB10 (Neuroblastoma))	Bliss excess [10]	Bliss excess (NOS-1 (Osteosarcoma))	Bliss excess [11]	Bliss excess [12]	Bliss excess [13]	Bliss excess [14]	Bliss excess [15]
NC1(C(=O)N[C@@H](CCO)c2ccc(Cl)cc2)CCN(c2ncnc3[nH]ccc23)CC1 [Capivasertib] + COc1nnc2ccc(N3CCC(c4ccc(OCCN5CCN(C)C(=O)[C@H]5C)cc4)CC3)nn12 [AZD5153] (first compound max 10 µM, 7x7, partner max 1 µM)	0.0611	0.062	-0.0084	0.0434	-0.0175	0.0214	0.0184	-0.0158	-0.0509	-0.0055	0.0588	0.0901	0.0121	-0.139	0.0423	-0.0496	-0.0101	0.0815	0.0642	0.0567
Cc1c2c(nn1C)CSCc1cc(n(C)n1)CSc1cc(c3ccccc3c1)OCCCc1c(C(=O)O)n(C)c3c-2c(Cl)ccc13 [AZD5991] + Cc1cc2ncnn2cc1Nc1ncc2c(n1)n(C1CCOCC1)c(=O)n2C [AZD7648] (first compound max 1 µM, 7x7, partner max 10 µM)	-0.0299	-0.0155	–	-0.0555	-0.0593	-0.0039	-0.0368	-0.0228	-0.0595	-0.0213	-0.0344	-0.0101	0.0047	0.0174	0.0112	-0.0531	0.0148	0.0001	-0.0325	0.0162
COc1nnc2ccc(N3CCC(c4ccc(OCCN5CCN(C)C(=O)[C@H]5C)cc4)CC3)nn12 [AZD5153] + CN(CC[C@H](CSC1=CC=CC=C1)NC2=C(C=C(C=C2)S(=O)(=O)NC(=O)C3=CC=C(C=C3)N4CCC(CC4)[C@H](C5=CC=CC=C5C6=CC=C(C=C6)Cl)O)S(=O)(=O)C(F)(F)F)CCO [AZD4320] (first compound max 1 µM, 7x7, partner max 1 µM)	0.101	0.0375	–	-0.0052	-0.0136	–	–	–	0.023	–	0.0967	0.0104	–	–	0.044	-0.0203	-0.0145	0.0211	–	–
CC(=O)c1c(C)c2cnc(Nc3ccc(N4CCNCC4)cn3)nc2n(C2CCCC2)c1=O [Palbociclib] + CN(CC[C@H](CSC1=CC=CC=C1)NC2=C(C=C(C=C2)S(=O)(=O)NC(=O)C3=CC=C(C=C3)N4CCC(CC4)[C@H](C5=CC=CC=C5C6=CC=C(C=C6)Cl)O)S(=O)(=O)C(F)(F)F)CCO [AZD4320] (first compound max 10 µM, 7x7, partner max 1 µM)	-0.061	-0.0241	–	-0.0715	-0.113	–	–	–	-0.0557	–	-0.0078	-0.0227	–	–	0.0414	-0.0591	0.0351	0.0334	–	–
COc1cccc(OCCCN)c1-c1cc(Nc2cnc(C#N)cn2)n[nH]1 [Prexasertib] + C=CCn1c(=O)c2cnc(Nc3ccc(N4CCN(C)CC4)cc3)nc2n1-c1cccc(C(C)(C)O)n1 [AZD1775] (first compound max 1 µM, partner max 1 µM)	0.0835	0.154	0.048	0.077	0.0978	0.104	0.0252	0.0282	0.0142	0.184	0.0331	0.116	0.13	0.0778	0.0924	0.0044	–	0.0454	0.0165	0.2
COc1cccc(OCCCN)c1-c1cc(Nc2cnc(C#N)cn2)n[nH]1 [Prexasertib] + O=C(c1cc(Cc2n[nH]c(=O)c3ccccc23)ccc1F)N1CCN(C(=O)C2CC2)CC1 [Olaparib] (first compound max 1 µM, 7x7, partner max 10 µM)	-0.0399	-0.007	-0.0041	-0.0253	-0.0699	0.0205	-0.0742	-0.0891	-0.111	-0.0348	-0.0509	-0.0516	-0.0272	-0.0735	0.0177	-0.0374	–	0.0008	-0.0427	-0.0425
C[C@@H](c1ccc2nccn2c1)n1nnc2ncc(-c3cnn(C)c3)nc21 [Savolitinib] + CN(CC[C@H](CSC1=CC=CC=C1)NC2=C(C=C(C=C2)S(=O)(=O)NC(=O)C3=CC=C(C=C3)N4CCC(CC4)[C@H](C5=CC=CC=C5C6=CC=C(C=C6)Cl)O)S(=O)(=O)C(F)(F)F)CCO [AZD4320] (first compound max 1 µM, 7x7, partner max 1 µM)	-0.0553	0.0041	–	0.0005	-0.0622	–	–	–	-0.0298	–	-0.0425	-0.0181	–	–	-0.0137	-0.0691	-0.0478	-0.0692	–	–
COc1cc2c(cc1OCCCCCOc1cc3c(cc1OC)C(=O)N1C=C(C)C[C@H]1C=N3)N=C[C@@H]1CC(C)=CN1C2=O [SG3199] + O=C(c1cc(Cc2n[nH]c(=O)c3ccccc23)ccc1F)N1CCN(C(=O)C2CC2)CC1 [Olaparib] (first compound max 0.001 µM, 7x7, partner max 10 µM)	0.0075	0.0434	-0.0123	-0.011	-0.0097	-0.0138	0.0142	-0.0693	-0.0137	-0.0525	-0.035	-0.0639	-0.0067	-0.0075	-0.0275	-0.0268	–	-0.0326	-0.0307	-0.0269
C=CCn1c(=O)c2cnc(Nc3ccc(N4CCN(C)CC4)cc3)nc2n1-c1cccc(C(C)(C)O)n1 [AZD1775] + O=C(c1cc(Cc2n[nH]c(=O)c3ccccc23)ccc1F)N1CCN(C(=O)C2CC2)CC1 [Olaparib] (first compound max 1 µM, partner max 10 µM)	0.0093	0.0393	-0.0634	-0.0245	0.0199	0.0217	0.0038	-0.0358	-0.0301	-0.0188	-0.0357	-0.0218	-0.0088	-0.0098	0.0285	0.0916	–	0.0511	-0.106	-0.0271
CCc1c2c(nc3ccc(O)cc13)-c1cc3c(c(=O)n1C2)COC(=O)[C@]3(O)CC [SN-38] + CN(C)CCCOc1ccc(-c2ccc3ncc4c(c3c2)n(C2CCOCC2)c(=O)n4C)cn1 [AZD0156] (first compound max 0.3 µM, 7x7, partner max 1 µM)	0.0561	0.0105	0.0091	0.0134	0.0523	0.0488	0.0155	0.0421	-0.0071	0.0439	-0.063	-0.0007	-0.0533	0.0287	-0.0111	-0.008	–	0.0037	0.0146	0.0065
Cc1c2c(nn1C)CSCc1cc(n(C)n1)CSc1cc(c3ccccc3c1)OCCCc1c(C(=O)O)n(C)c3c-2c(Cl)ccc13 [AZD5991] + C=CCn1c(=O)c2cnc(Nc3ccc(N4CCN(C)CC4)cc3)nc2n1-c1cccc(C(C)(C)O)n1 [AZD1775] (first compound max 1 µM, partner max 1 µM)	0.0071	-0.053	-0.0399	0.0389	0.0578	-0.0348	0.0322	-0.0346	0.0434	0.0495	-0.052	-0.0025	-0.0441	-0.0532	–	-0.0002	-0.0294	-0.0008	-0.0135	0.0286
CCN(CCO)CCCOc1ccc2c(Nc3cc(CC(=O)Nc4cccc(F)c4)[nH]n3)ncnc2c1 [AZD2811] + O=C(c1cc(Cc2n[nH]c(=O)c3ccccc23)ccc1F)N1CCN(C(=O)C2CC2)CC1 [Olaparib] (first compound max 1 µM, 7x7, partner max 10 µM)	0.009	0.0104	0.0035	0.0377	-0.0138	-0.0329	-0.0359	-0.0317	-0.0217	0.0636	-0.0133	-0.011	-0.0445	0.022	0.0085	0.0008	–	-0.0075	-0.0125	-0.0111
Cc1cc2ncnn2cc1Nc1ncc2c(n1)n(C1CCOCC1)c(=O)n2C [AZD7648] + C=CCn1c(=O)c2cnc(Nc3ccc(N4CCN(C)CC4)cc3)nc2n1-c1cccc(C(C)(C)O)n1 [AZD1775] (first compound max 10 µM, partner max 1 µM)	-0.052	-0.0273	-0.0004	-0.0049	0.0337	0.0444	0.015	-0.0501	0.0058	-0.0272	-0.0854	-0.0096	-0.0812	-0.0429	-0.0145	-0.0186	–	0.0322	0.0223	0.0148
